The values that follow come from patent publication US11548883B2, “Compounds as autotaxin inhibitors and pharmaceutical compositions comprising the same” (LegoChem Biosciences, Inc., priority 2017, dated 2023).

Where a name gives a salt, the structure may show the parent alone.

The first test concerns LPA production in blood serum. The test is described as follows: Inhibitory activity on LPA production in mouse blood serum. The conditions noted are these: mouse blood serum (m), 18:1 LPC added. The format is biochemical.
For orientation: IC50 means the point on the concentration scale where inhibition reaches its midpoint. The low end stands for greater potency, the high end for weaker potency. In the case of `O=C(Cn1cc(-c2cnc(NC3Cc4ccccc4C3)nc2)cn1)N1CCc2[nH]nnc2C1` [Compound 56, 2-(4-{2-[(2,3-dihydro-1H-inden-2-yl)amino]pyrimidin-5-yl}-1H-pyrazol-1-yl)-1-{1H,4H,5H,6H,7H-[1,2,3]triazolo[4,5-c]pyridin-5-yl}ethan-1-one], the IC50 was determined as 13 nM.
`O=C(Cn1cnc(-c2cnc(NC3Cc4ccccc4C3)nc2)c1)N1CCc2[nH]nnc2C1` [Compound 60, 2-(4-{2-[(2,3-dihydro-1H-inden-2-yl)amino]pyrimidin-5-yl}-1H-imidazol-1-yl)-1-{1H,4H,5H,6H,7H-[1,2,3]triazolo[4,5-c]pyridin-5-yl}ethan-1-one] came in with an IC50 of 11 nM.
As for `CCOc1nn(CC(=O)N2CCc3[nH]nnc3C2)cc1-c1cnc(NC2Cc3ccccc3C2)nc1` [Compound 61, 2-(4-{2-[(2,3-dihydro-1H-inden-2-yl)amino]pyrimidin-5-yl}-3-ethoxy-1H-pyrazol-1-yl)-1-{1H,4H,5H,6H,7H-[1,2,3]triazolo[4,5-c]pyridin-5-yl}ethan-1-one], the IC50 turned out to be 25 nM.
On the same count and under the same terms, the value for `O=C(Cn1cc(-c2cnc(NC3Cc4ccccc4C3)nc2)c(OC2CNC2)n1)N1CCc2[nH]nnc2C1` [Compound 62, 2-[3-(azetidin-3-yloxy)-4-{2-[(2,3-dihydro-1H-inden-2-yl)amino]pyrimidin-5-yl}-1H-pyrazol-1yl]-1-{1H,4H,5H,6H,7H-[1,2,3]triazolo[4,5-c]pyridin-5-yl}ethan-1-one hydrochloride] was 22 nM.

For a further test, the target named is human ENPP2 (Homo sapiens (Human), UniProt Q13822). Briefly: Inhibitory activity on human ENPP2 (FS-3 assay). The format is biochemical. The following applies: human ENPP2, FS-3 substrate, Table 2. On the procedure: Two-fold dilution of each test compound solution (10 μM, 100% dimethyl sulfoxide) is carried out on 96-well V bottom plate (Costar 3363). After ten-fold dilution of each the test compound solution (100% dimethyl sulfoxide) with deionized distilled water, 10 μL of the diluted each compound solution (10% dimethyl sulfoxide) was aliquoted to a black flat bottom 96-well plate (Costar 3915).
As to `CN1C(=O)N(c2ccc3[nH]nnc3c2)C2(CCN(C(=O)c3cnc(NCc4cccc(OC(F)(F)F)c4)nc3)CC2)C1=O` [Compound 9, 1-(1H-1,2,3-benzotriazol-5-yl)-3-methyl-8[2-({[3-(trifluoromethoxy)phenyl]methyl}amino)pyrimidine-5-carbonyl]-1,3,8-triazaspiro[4,5]-decane-2,4-dione], the IC50 came out at 9 nM.
With `O=C(Cc1nnc(-c2cnc(NC3Cc4ccccc4C3)nc2)o1)N1CCc2[nH]nnc2C1` [Compound 33, 2-(5-(2-((2,3-dihydro-1H-inden-2-yl)amino)pyrimidin-5-yl)-1,3,4-oxadiazol-2-yl)-1-(1,4,6,7-tetrahydro-5H-[1,2,3]triazolo[4,5-c]pyridin-5-yl)ethan-1-one], it took 2 nM to reach half-maximal inhibition (IC50).
Turning to `O=C(O)C1=CCN(C(=O)Cc2nnc(-c3cnc(NC4Cc5ccccc5C4)nc3)o2)CC1` [Compound 48, 1-[2-(5-{2-[(2,3-dihydro-1H-inden-2-yl)amino]pyrimidin-5-yl}-1,3,4-oxadiazol-2-yl)acetyl]-1,2,3,6-tetrahydropyridine-4-carboxylic Acid], 13.3 nM corresponded to half-maximal inhibition (IC50).
On the same count and under the same terms, the value for `O=C(Cc1nnc(-c2cnc(NC3Cc4ccccc4C3)nc2)o1)Nc1ccc(C(=O)O)cc1` [Compound 50, 4-[2-(5-{2-[(2,3-dihydro-1H-inden-2-yl)amino]pyrimidin-5-yl}-1,3,4-oxadiazol-2-yl)acetamido]benzoic Acid] was 4.5 nM; that for `O=C(Cc1nnc(-c2cnc(NC3Cc4ccccc4C3)nc2)[nH]1)N1CCc2[nH]nnc2C1` [Compound 52, 2-(5-{2-[(2,3-dihydro-1H-inden-2-yl)amino]pyrimidin-5-yl}-4H-1,2,4-triazol-3-yl)-1-{1H,4H,5H,6H,7H-[1,2,3]triazolo[4,5-c]pyridin-5-yl}ethan-1-one] was 3.6 nM; that for `CCc1cc(-c2cnc(NC3Cc4ccccc4C3)nc2)nn1CC(=O)N1CCc2[nH]nnc2C1` [Compound 54, 2-(3-{2-[(2,3-dihydro-1H-inden-2-yl)amino]pyrimidin-5-yl}-5-ethyl-1H-pyrazol-1-yl)-1-{1H,4H,5H,6H,7H-[1,2,3]triazolo[4,5-c]pyridin-5-yl}ethan-1-one] was 15.8 nM.
In turn, `O=C(Cn1cc(-c2cnc(NC3Cc4ccccc4C3)nc2)cn1)N1CCc2[nH]nnc2C1` [Compound 56, 2-(4-{2-[(2,3-dihydro-1H-inden-2-yl)amino]pyrimidin-5-yl}-1H-pyrazol-1-yl)-1-{1H,4H,5H,6H,7H-[1,2,3]triazolo[4,5-c]pyridin-5-yl}ethan-1-one] came in with an IC50 of 2.2 nM.
`O=C(Cn1cc(-c2cnc(NC3Cc4ccccc4C3)nc2)cn1)Nc1ccc2[nH]c(=O)oc2c1` [Compound 57, 2-(4-{2-[(2,3-dihydro-1H-inden-2-yl)amino]pyrimidin-5-yl}-1H-pyrazol-1-yl)-N-(2-oxo-2,3-dihydro-1,3-benzoxazol-6-yl)acetamide] returned an IC50 of 2 nM.
Still for that read-out and setting: the value for `O=C(Cn1cc(-c2ccc(NC3Cc4ccccc4C3)nc2)cn1)N1CCc2[nH]nnc2C1` [Compound 58, 2-(4-{6-[(2,3-dihydro-1H-inden-2-yl)amino]pyridin-3-yl}-1H-pyrazol-1-yl)-1-{1H,4H,5H,6H,7H-[1,2,3]triazolo[4,5-c]pyridin-5-yl}ethan-1-one] was 3.5 nM.
Same read-out and setting: the value for `O=C(Cn1cc(-c2cnc(NC3Cc4ccccc4C3)cn2)cn1)N1CCc2[nH]nnc2C1` [Compound 59, 2-(4-{5-[(2,3-dihydro-1H-inden-2-yl)amino]pyrazin-2-yl}-1H-pyrazol-1-yl)-1-{1H,4H,5H,6H,7H-[1,2,3]triazolo[4,5-c]pyridin-5-yl}ethan-1-one] was 11.1 nM; that for `O=C(Cn1cnc(-c2cnc(NC3Cc4ccccc4C3)nc2)c1)N1CCc2[nH]nnc2C1` [Compound 60, 2-(4-{2-[(2,3-dihydro-1H-inden-2-yl)amino]pyrimidin-5-yl}-1H-imidazol-1-yl)-1-{1H,4H,5H,6H,7H-[1,2,3]triazolo[4,5-c]pyridin-5-yl}ethan-1-one] was 1.8 nM; that for `O=C(Cn1cc(-c2cnc(NC3Cc4ccccc4C3)nc2)c(OC2CNC2)n1)N1CCc2[nH]nnc2C1` [Compound 62, 2-[3-(azetidin-3-yloxy)-4-{2-[(2,3-dihydro-1H-inden-2-yl)amino]pyrimidin-5-yl}-1H-pyrazol-1yl]-1-{1H,4H,5H,6H,7H-[1,2,3]triazolo[4,5-c]pyridin-5-yl}ethan-1-one hydrochloride] was 2.4 nM.
Same read-out and setting: the value for `O=C(Cn1cc(-c2cnc(NC3Cc4ccccc4C3)nc2)c(OCc2ccccc2)n1)N1CCOCC1` [Compound 64, 2-[3-(benzyloxy)-4-{2-[(2,3-dihydro-1H-inden-2-yl)amino]pyrimidin-5-yl}-1H-pyrazol-1-yl]-1-(morpholin-4-yl)ethan-1-one] was 3 nM; that for `O=C(Cn1cc(-c2cnc(NC3Cc4ccccc4C3)nc2)c(OCCN2CCNCC2)n1)N1CCc2[nH]nnc2C1` [Compound 67, 2-(4-{2-[(2,3-dihydro-1H-inden-2-yl)amino]pyrimidin-5-yl}-3-[2-(piperazin-1-yl)ethoxy]-1H-pyrazol-1-yl)-1-{1H,4H,5H,6H,7H-[1,2,3]triazolo[4,5-c]pyridin-5-yl}ethan-1-one] was 6.1 nM; that for `O=C(Cn1cc(-c2cnc(NC3Cc4ccccc4C3)nc2)c(OC2CCNCC2)n1)N1CCc2[nH]nnc2C1` [Compound 69, 2-(4-{2-[(2,3-dihydro-1H-inden-2-yl)amino]pyrimidin-5-yl}-3-(piperidin-4-yloxy)-1H-pyrazol-1-yl)-1-{1H,4H,5H,6H,7H-[1,2,3]triazolo[4,5-c]pyridin-5-yl}ethan-1-one] was 4 nM.
`O=C(Cn1cc(-c2cnc(NC3Cc4ccccc4C3)nc2)c(OC2CCN(CC(F)F)CC2)n1)N1CCc2[nH]nnc2C1` [Compound 71, 2-(3-{[1-(2,2-difluoroethyl)piperidin-4-yl]oxy}-4-{2-[(2,3-dihydro-1H-inden-2-yl)amino]pyrimidin-5-yl}-1H-pyrazol-1-yl)-1-{1H,4H,5H,6H,7H-[1,2,3]triazolo[4,5-c]pyridin-5-yl}ethan-1-one] had an IC50 of 3.6 nM.
`O=C(Cn1cc(-c2cnc(NC3Cc4ccccc4C3)nc2)c(C(=O)N2CCCCC2)n1)N1CCc2[nH]nnc2C1` [Compound 76, 2-(4-{2-[(2,3-dihydro-1H-inden-2-yl)amino]pyrimidin-5-yl}-3-(piperidine-1-carbonyl)-1H-pyrazol-1-yl)-1-{1H,4H,5H,6H,7H-[1,2,3]triazolo[4,5-c]pyridin-5-yl}ethan-1-one] came in with an IC50 of 3 nM.
Turning to `O=C(Cn1cc(-c2cnc(NC3Cc4ccccc4C3)nc2)c(C(=O)N2CCNCC2)n1)N1CCc2[nH]nnc2C1` [Compound 77, 2-(4-{2-[(2,3-dihydro-1H-inden-2-yl)amino]pyrimidin-5-yl}-3-(piperazine-1-carbonyl)-1H-pyrazol-1-yl)-1-{1H,4H,5H,6H,7H-[1,2,3]triazolo[4,5-c]pyridin-5-yl}ethan-1-one hydrochloride], the IC50 amounted to 6.5 nM.
For `CCc1c(-c2cnc(NC3Cc4ccccc4C3)nc2)cnn1CC(=O)N1CCc2[nH]nnc2C1` [Compound 78, 2-(4-{2-[(2,3-dihydro-1H-inden-2-yl)amino]pyrimidin-5-yl}-5-ethyl-1H-pyrazol-1-yl)-1-{1H,4H,5H,6H,7H-[1,2,3]triazolo[4,5-c]pyridin-5-yl}ethan-1-one], the IC50 was found to be 2.4 nM. This IC50 is about 2.7-fold lower than that of the compound before.
Still for that read-out and setting: the value for `O=C(Cn1cc(-c2cnc(NC3Cc4ccccc4C3)nc2)c(CN2CCc3ccccc32)n1)N1CCc2[nH]nnc2C1` [Compound 83, 2-(4-{2-[(2,3-dihydro-1H-inden-2-yl)amino]pyrimidin-5-yl}-3-(2,3-dihydro-1H-indol-1-ylmethyl)-1H-pyrazol-1-yl)-1-{1H,4H,5H,6H,7H-[1,2,3]triazolo[4,5-c]pyridin-5-yl}ethan-1-one] was 2.1 nM.
The same measure, in the same setting: the value for `O=C(Cn1cc(-c2cnc(NC3Cc4ccccc4C3)nc2)c(CN2CCC(F)(F)CC2)n1)N1CCc2[nH]nnc2C1` [Compound 85, 2-{3-[(4,4-difluoropiperidin-1-yl)methyl]-4-{2-[(2,3-dihydro-1H-inden-2-yl)amino]pyrimidin-5-yl}-1H-pyrazol-1-yl}-1-{1H,4H,5H,6H,7H-[1,2,3]triazolo[4,5-c]pyridin-5-yl}ethan-1-one hydrofluoride] was 2.2 nM; that for `O=C(Cn1cc(-c2cnc(NC3Cc4ccccc4C3)nc2)c(CN2CC=C(c3ccccc3)CC2)n1)N1CCc2[nH]nnc2C1` [Compound 86, 2-(4-{2-[(2,3-dihydro-1H-inden-2-yl)amino]pyrimidin-5-yl}-3-[(4-phenyl-1,2,3,6-tetrahydropyridin-1-yl)methyl]-1H-pyrazol-1-yl)-1-{3H,4H,5H,6H,7H-[1,2,3]triazolo[4,5-c]pyridin-5-yl}ethan-1-one] was 3 nM; that for `CN1CCN(Cc2nn(CC(=O)N3CCc4[nH]nnc4C3)cc2-c2cnc(NC3Cc4ccccc4C3)nc2)CC1=O` [Compound 87, 4-[(4-{2-[(2,3-dihydro-1H-inden-2-yl)amino]pyrimidin-5-yl}-1-(2-oxo-2-{1H,2H,3H,4H,5H,6H,7H-[1,2,3]triazolo[4,5-c]pyridin-5-yl}ethyl)-1H-pyrazol-3-yl)methyl]-1-methylpiperazin-2-one] was 3.1 nM.
On the same count and under the same terms, the value for `O=C1CNCCN1Cc1nn(CC(=O)N2CCc3[nH]nnc3C2)cc1-c1cnc(NC2Cc3ccccc3C2)nc1` [Compound 88, 1-[(4-{2-[(2,3-dihydro-1H-inden-2-yl)amino]pyrimidin-5-yl}-1-(2-oxo-2-{1H,4H,5H,6H,7H-[1,2,3]triazolo[4,5-c]pyridin-5-yl}ethyl)-1H-pyrazol-3-yl)methyl]piperazin-2-one] was 4.1 nM.
